Experimental findings from US20250034135A1, “ANTI-APOPTOTIC PROTEIN BCL-2 INHIBITOR, PHARMACEUTICAL COMPOSITION AND USES THEREOF” (HANGZHOU HEALZEN THERAPEUTICS CO., LTD., priority 2021, published 2025) are described below.

Chain of BCL2 (P10415 whole entry): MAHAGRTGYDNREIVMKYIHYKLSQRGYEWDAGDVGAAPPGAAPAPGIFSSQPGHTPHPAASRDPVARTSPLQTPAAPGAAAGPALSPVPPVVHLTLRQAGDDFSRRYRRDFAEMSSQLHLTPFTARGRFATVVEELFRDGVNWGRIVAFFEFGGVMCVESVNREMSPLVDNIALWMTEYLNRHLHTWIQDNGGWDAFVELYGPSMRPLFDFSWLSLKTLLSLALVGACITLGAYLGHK

For this experiment, the target named is BCL2 (Homo sapiens (Human), UniProt P10415). In words: Molecular level activity test of anti-apoptotic protein BCL2 (HTRF, binding to Bim peptide). The note with it: HTRF, binding of BCL2 to Bim peptide; read-out: BCL2 nM (inhibitory activity, IC50). The method, boiled down:
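Step one: compound, supplied in 2% DMSO, is mixed with His-tagged BCL2 and biotinylated Bim peptide and reacted for 1 h. Step two: anti-His and streptavidin-XL665 reagents in detection buffer are added. Step three: after a 4 h room-temperature incubation, time-resolved fluorescence is measured.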
A general note: Time-resolved FRET reads energy transfer from a long-lived donor to a nearby acceptor.
As usually defined, the IC50 is the concentration that inhibits the measured activity by half. Consider `COc1ccc(CN2CCN(C3CC4(CCN(c5cc(Oc6cnc7[nH]ccc7c6)c(C(=O)NS(=O)(=O)c6ccc(NCC7(F)CCOCC7)c([N+](=O)[O-])c6)cn5)CC4)C3)C(c3ccccc3C(C)C)C2)cc1` (stereo not drawn) [compound 065, 4-((1H-pyrrolo[2,3-b]pyrid-5-yl)oxy)-N-((4-(((4-fluorotetrahydro-2H-pyran-4-yl)methyl)amino)-3-nitrophenyl)sulfonyl)-6-(2-(2-(2-isopropylphenyl)-4-(4-methoxybenzyl)piperazin-1-yl)-7-azaspiro[3.5]non-7-yl) nicotinamide], for which the IC50 is less than 10 nM. As for `COc1ccc(CN2CCN(C3CC4(CCN(c5cc(Oc6cnc7[nH]ccc7c6)c(C(=O)NS(=O)(=O)c6cc([N+](=O)[O-])c(NC[C@H]7CC[C@](C)(O)CC7)c7[nH]cnc67)cn5)CC4)C3)C(c3ccccc3C(C)C)C2)cc1` (stereo partly drawn) [compound 067, 4-((1H-pyrrolo[2,3-b]pyrid-5-yl)oxy)-N-((7-((((1r,4r)-4-hydroxy-4-methylcyclohexyl)methyl)amino)-6-nitro-1H-benzo[d]imidazol-4-yl)sulfonyl)-6-(2-(2-(2-isopropylphenyl)-4-(4-methoxybenzyl)piperazin-1-yl)-7-azaspiro[3.5]non-7-yl) nicotinamide], the IC50 was less than 10 nM. With `COc1ccc(CN2CCN(C3CC4(C3)CN(c3cc(Oc5cnc6[nH]ccc6c5)c(C(=O)NS(=O)(=O)c5cc([N+](=O)[O-])c(NC[C@H]6CC[C@](C)(O)CC6)c6[nH]cnc56)cn3)C4)C(c3ccccc3C(C)C)C2)cc1` (stereo partly drawn) [compound 068, 4-((1H-pyrrolo[2,3-b]pyrid-5-yl)oxy)-N-((7-((((1r,4r)-4-hydroxy-4-methylcyclohexyl)methyl)amino)-6-nitro-1H-benzo[d]imidazol-4-yl)sulfonyl)-6-(6-(2-(2-isopropylphenyl)-4-(4-methoxybenzyl)piperazin-1-yl)-2-azaspiro[3.3]hept-2-yl) nicotinamide] the figure was less than 10 nM; with `COc1ccc(CN2CCN(C3CC4(CCN(c5cc(Oc6cnc7[nH]ccc7c6)c(C(=O)NS(=O)(=O)c6cc([N+](=O)[O-])c(NCC7(F)CCN(C(C)C)CC7)c7[nH]cnc67)cn5)CC4)C3)C(c3ccccc3C(C)C)C2)cc1` (stereo not drawn) [compound 069, 4-((1H-pyrrolo[2,3-b]pyrid-5-yl)oxy)-N-((7-(((4-fluoro-1-isopropylpiperid-4-yl)methyl)amino)-6-nitro-1H-benzo[d]imidazol-4-yl)sulfonyl)-6-(2-(2-(2-isopropylphenyl)-4-(4-methoxybenzyl)piperazin-1-yl)-7-azaspiro[3.5]non-7-yl) nicotinamide], less than 10 nM; with `COc1ccc(CN2CCN(C3CC4(C3)CN(c3cc(Oc5cnc6[nH]ccc6c5)c(C(=O)NS(=O)(=O)c5cc([N+](=O)[O-])c(NCC6(F)CCN(C(C)C)CC6)c6[nH]cnc56)cn3)C4)C(c3ccccc3C(C)C)C2)cc1` (stereo not drawn) [compound 070, 4-((1H-pyrrolo[2,3-b]pyrid-5-yl)oxy)-N-((7-(((4-fluoro-1-isopropylpiperid-4-yl)methyl)amino)-6-nitro-1H-benzo[d]imidazol-4-yl)sulfonyl)-6-(6-(2-(2-isopropylphenyl)-4-(4-methoxybenzyl)piperazin-1-yl)-2-azaspiro[3.3]hept-2-yl) nicotinamide], less than 10 nM. On to `COc1ccc(CN2CCN(C3CC4(CCN(c5cc(Oc6cnc7[nH]ccc7c6)c(C(=O)NS(=O)(=O)c6cc([N+](=O)[O-])c(NC[C@H]7CC[C@](C)(O)CC7)c7[nH]cnc67)cc5F)CC4)C3)C(c3ccccc3C(C)C)C2)cc1` (stereo partly drawn) [compound 071, 2-((1H-pyrrolo[2,3-b]pyrid-5-yl)oxy)-5-fluoro-N-((7-((((1r,4r)-4-hydroxy-4-methylcyclohexyl)methyl)amino)-6-nitro-1H-benzo[d]imidazol-4-yl)sulfonyl)-4-(2-(2-(2-isopropylphenyl)-4-(4-methoxybenzyl)piperazin-1-yl)-7-azaspiro[3.5]non-7-yl)benzamide], for which the IC50 was less than 10 nM. For the compound `COc1ccc(CN2CCN(C3CC4(C3)CN(c3cc(Oc5cnc6[nH]ccc6c5)c(C(=O)NS(=O)(=O)c5cc([N+](=O)[O-])c(NC[C@H]6CC[C@](C)(O)CC6)c6[nH]cnc56)cc3F)C4)C(c3ccccc3C(C)C)C2)cc1` (stereo partly drawn) [compound 072, 2-((1H-pyrrolo[2,3-b]pyrid-5-yl)oxy)-5-fluoro-N-((7-((((1r,4r)-4-hydroxy-4-methylcyclohexyl)methyl)amino)-6-nitro-1H-benzo[d]imidazol-4-yl)sulfonyl)-4-(6-(2-(2-isopropylphenyl)-4-(4-methoxybenzyl)piperazin-1-yl)-2-azaspiro[3.3]hept-2-yl)benzamide], the IC50 was less than 10 nM. With `COc1ccc(CN2CCN(C3CC4(CCN(c5cc(Oc6cnc7[nH]ccc7c6)c(C(=O)NS(=O)(=O)c6cc([N+](=O)[O-])c(NCC7(F)CCN(C(C)C)CC7)c7[nH]cnc67)cc5F)CC4)C3)C(c3ccccc3C(C)C)C2)cc1` (stereo not drawn) [compound 073, 2-((1H-pyrrolo[2,3-b]pyrid-5-yl)oxy)-5-fluoro-N-((7-(((4-fluoro-1-isopropylpiperid-4-yl)methyl)amino)-6-nitro-1H-benzo[d]imidazol-4-yl)sulfonyl)-4-(2-(2-(2-isopropylphenyl)-4-(4-methoxybenzyl)piperazin-1-yl)-7-azaspiro[3.5]non-7-yl)benzamide], the IC50 is less than 10 nM.

Take `COc1ccc(CN2CCN(C3CC4(C3)CN(c3cc(Oc5cnc6[nH]ccc6c5)c(C(=O)NS(=O)(=O)c5cc([N+](=O)[O-])c(NCC6(F)CCN(C(C)C)CC6)c6[nH]cnc56)cc3F)C4)C(c3ccccc3C(C)C)C2)cc1` (stereo not drawn) [compound 074, 2-((1H-pyrrolo[2,3-b]pyrid-5-yl)oxy)-5-fluoro-N-((7-(((4-fluoro-1-isopropylpiperid-4-yl)methyl)amino)-6-nitro-1H-benzo[d]imidazol-4-yl)sulfonyl)-4-(6-(2-(2-isopropylphenyl)-4-(4-methoxybenzyl)piperazin-1-yl)-2-azaspiro[3.3]hept-2-yl)benzamide]: the IC50 was less than 10 nM. On to `COc1ccc(CN2CCN(C3CC4(CCN(c5cc(Oc6cnc7[nH]ccc7c6)c(C(=O)NS(=O)(=O)c6cc([N+](=O)[O-])c(NCC7CCOCC7)c7[nH]cnc67)cn5)CC4)C3)C(c3ccccc3C(C)C)C2)cc1` (stereo not drawn) [compound 075, 4-((1H-pyrrolo[2,3-b]pyrid-5-yl)oxy)-6-(2-(2-(2-isopropylphenyl)-4-(4-methoxybenzyl)piperazin-1-yl)-7-azaspiro[3.5]non-7-yl)-N-((6-nitro-7-(((tetrahydro-2H-pyran-4-yl)methyl)amino)-1H benzo[d]imidazol-4-yl)sulfonyl) nicotinamide], for which the IC50 is less than 10 nM. For the compound `COc1ccc(CN2CCN(C3CC4(CCN(c5cc(Oc6cnc7[nH]ccc7c6)c(C(=O)NS(=O)(=O)c6cc([N+](=O)[O-])c(NCC7CCOCC7)c7[nH]cnc67)cc5F)CC4)C3)C(c3ccccc3C(C)C)C2)cc1` (stereo not drawn) [compound 076, 2-((1H-pyrrolo[2,3-b]pyrid-5-yl)oxy)-5-fluoro-4-(2-(2-(2-isopropylphenyl)-4-(4-methoxybenzyl)piperazin-1-yl)-7-azaspiro[3.5]non-7-yl)-N-((6-nitro-7-(((tetrahydro-2H-pyran-4-yl)methyl)amino)-1H-benzo[d]imidazol-4-yl)sulfonyl)benzamide], the IC50 was less than 10 nM. The value for `COc1ccc(CN2CCN(C3CC4(CCN(c5cc(Oc6cnc7[nH]ccc7c6)c(C(=O)NS(=O)(=O)c6cc([N+](=O)[O-])c(NCC7(F)CCOCC7)c7[nH]cnc67)cn5)CC4)C3)C(c3ccccc3C(C)C)C2)cc1` (stereo not drawn) [compound 077, 4-((1H-pyrrolo[2,3-b]pyrid-5-yl)oxy)-N-((7-(((4-fluorotetrahydro-2H-pyran-4-yl)methyl)amino)-6-nitro-1H-benzo[d]imidazol-4-yl)sulfonyl)-6-(2-(2-(2-isopropylphenyl)-4-(4-methoxybenzyl)piperazin-1-yl)-7-azaspiro[3.5]non-7-yl) nicotinamide] was less than 10 nM; that for `COc1ccc(CN2CCN(C3CC4(CCN(c5cc(Oc6cnc7[nH]ccc7c6)c(C(=O)NS(=O)(=O)c6cc([N+](=O)[O-])c(NCC7(F)CCOCC7)c7[nH]cnc67)cc5F)CC4)C3)C(c3ccccc3C(C)C)C2)cc1` (stereo not drawn) [compound 078, 2-((1H-pyrrolo[2,3-b]pyrid-5-yl)oxy)-5-fluoro-N-((7-(((4-fluorotetrahydro-2H-pyran-4-yl)methyl)amino)-6-nitro-1H-benzo[d]imidazol-4-yl)sulfonyl)-4-(2-(2-(2-isopropylphenyl)-4-(4-methoxybenzyl)piperazin-1-yl)-7-azaspiro[3.5]non-7-yl)benzamide] was less than 10 nM; that for `CC(C)c1ccccc1[C@@H]1CCCN1C1CC2(CCN(c3ccc(C(=O)NS(=O)(=O)c4cc([N+](=O)[O-])c(NC[C@H]5CC[C@](C)(O)CC5)c5[nH]cnc45)c(N4CCOc5nc6[nH]ccc6cc54)c3)CC2)C1` [compound 079, 2-(2,3-dihydropyrrolo[3′,2′:5,6]pyridino[2,3-b][1,4]oxazin-1 (6H)-yl)-N-((7-((((1r,4r)-4-hydroxy-4-methylcyclohexyl)methyl)amino)-6-nitro-1H-benzo[d]imidazol-4-yl)sulfonyl)-4-(2-((S)-2-(2-isopropylphenyl)pyrrolidin-1-yl)-7-azaspiro[3.5]non-7-yl)benzamide] was less than 10 nM. With `CC(C)c1ccccc1[C@@H]1CCCN1C1CC2(CCN(c3ccc(C(=O)NS(=O)(=O)c4cc([N+](=O)[O-])c(NCC5(F)CCN(C6COC6)CC5)c5[nH]cnc45)c(N4CCOc5nc6[nH]ccc6cc54)c3)CC2)C1` [compound 080, (S)-2-(2,3-dihydropyrrolo[3′,2′:5,6]pyridino[2,3-b][1,4]oxazin-1 (6H)-yl)-N-((7-(((4-fluoro-1-(oxocyclobut-3-yl)piperid-4-yl)methyl)amino)-6-nitro-1H-benzo[d]imidazol-4-yl)sulfonyl)-4-(2-(2-(2-isopropylphenyl)pyrrolidin-1-yl)-7-azaspiro[3.5]non-7-yl)benzamide] the figure was less than 10 nM.
